Source: PubChem BioAssay AID449750 (Broad Institute, 2010)
Calls of active or inactive are those of the source. How the calls were made is not given here.

Test: non-covalent RecA intein splicing inhibitors, dose response, biochemical, cell-free, fluorescence, secondary screen (AID 449750)

| SMILES | AC50 |
| --- | --- |
| COc1ccc(-c2oc(NC(=O)CCl)c(C#N)c2-c2ccc(OC)cc2)cc1 | 1.55 µM |
| Oc1[nH]c2ccccc2c1N=NC(=S)N1CCOCC1 | > 38 µM (inactive) |
| CC[n+]1ccc2cc(OC)c(OC)cc2c1Cc1ccc(OC)c(OC)c1 | > 38 µM (inactive) |
| Cc1ccc(Sc2c(C)[nH]n(C(C)(C)C)c2=O)cc1 | > 38 µM (inactive) |
| COc1ccc2nc(SCC(=O)NN)cc(C)c2c1 | > 38 µM (inactive) |
| CC1(C)Nc2ccc(O)cc2-c2c1ssc2=S | > 38 µM (inactive) |
| O=C(Nc1ccccc1N(C(=O)c1ccco1)S(=O)(=O)c1cccs1)c1ccco1 | 23.1 µM |
| COc1ccc(N(C(=O)COc2cccc(C)c2)S(=O)(=O)c2ccc(C)cc2)cc1 | > 38 µM (inactive) |
| COc1cccc(/C=C/C(=O)c2ccc(NS(=O)(=O)c3ccc(C)cc3)cc2)c1 | 6.79 µM |
| COc1ccc(C(=O)Nc2ccc(O)c3ccccc23)cc1OC | > 38 µM (inactive) |
| CCOC(=O)C1CCN(S(=O)(=O)c2c(Cl)ccc3nonc23)CC1 | 11.6 µM |
| O=C1NCN(c2ccccc2)C12CCN(CCCC(c1ccc(F)cc1)c1ccc(F)cc1)CC2 | 16.5 µM |
| O=C(CCl)Nc1cccc(S(=O)(=O)N2CCCCCC2)c1 | > 38 µM (inactive) |
| O=[N+]([O-])C(/C=C(/Cl)[N+](=O)[O-])=C(N1CCCCC1)N1CCCCC1 | > 38 µM (inactive) |
| CC(C)(C)C(=O)Nc1ccc(N=Nc2ccccc2)cc1 | 7.69 µM |
| c1ccc2[nH]c3cc4ncnc4cc3nc2c1 | 37.5 µM |
| O=C1C(Cl)=C(N2CCOCC2)C(=O)N1c1ccccc1F | > 38 µM (inactive) |
| CCOc1ccc(C(c2c(C)[nH][nH]c2=O)c2c(C)[nH][nH]c2=O)cc1OCC | 9.1 µM |
| CC1(C)CC(C(CCN(Cc2ccccc2)C(=O)c2ccco2)c2ccc(F)cc2)CCO1 (centres undefined) | 5.14 µM |
| CCN(CC)C(=O)CSc1nnc2nnc3cc(OC)ccc3n12 | > 38 µM (inactive) |
| COc1ccc(N2C(=O)CC(N(CCc3ccccc3)C(=O)/C=C/C(=O)O)C2=O)cc1 (centres undefined) | > 38 µM (inactive) |
| Cc1[nH][nH]c(=O)c1C(c1ccc(Br)cc1)c1c(C)[nH][nH]c1=O | 11.1 µM |
| Cc1ccc(O)c(N=CC2=C(O)c3ccccc3C2=O)c1 | 21.5 µM |
| CC1=NNC(=O)/C1=C\c1cn(-c2ccccc2)nc1-c1ccccc1 | 8.49 µM |
| CC(=O)Nc1ccc(NC(=O)c2nc(S(=O)(=O)Cc3cccc(C)c3)ncc2Cl)cc1 | > 38 µM (inactive) |
| Cc1nn(-c2ccccc2)c(Cl)c1/C=C1\SC(=S)N(CCCCCC(=O)O)C1=O | 14.8 µM |

| SMILES | AC50 |
| --- | --- |
| O=[N+]([O-])c1ccc(S(=O)(=O)c2cccc(C(F)(F)F)c2)nc1 | > 38 µM (inactive) |
| O=C1C(Nc2cccc(O)c2)=C(N2CCCCC2)C(=O)c2ccccc21 | 2.93 µM |
| N=C(N)SCc1cn(-c2ccccc2)nc1-c1ccc(Br)cc1 | 16.2 µM |
| O=C(CCl)Nc1cccc(Oc2ccccc2)c1 | 6.15 µM |
| O=[N+]([O-])c1cccc2c([As](=O)(O)O)cccc12 | > 38 µM (inactive) |
| Cc1ccc(S(=O)(=O)/N=C2/C=C(C3C(=O)CC(C)(C)CC3=O)C(=O)c3ccccc32)cc1 | > 38 µM (inactive) |
| COc1ccc(N2C(=O)CSC23C(=O)N2c4c(cccc43)C(C)=CC2(C)C)cc1 (centres undefined) | 30.8 µM |
| CCCc1[nH][nH]c(=O)c1C(c1ccc(Br)cc1)C(C#N)C#N (centres undefined) | 32.2 µM |
| COc1ccc(-c2c(=O)n(OC)c3ccccc3[n+]2[O-])cc1OC | > 38 µM (inactive) |
| O=C(Nc1ccccc1)C1=C(c2ccccc2)S(=O)(=O)CCS1(=O)=O | > 38 µM (inactive) |
| ClCc1nnc(-c2cc3c(s2)CCCC3)o1 | > 38 µM (inactive) |
| CC(C)c1nnc(NC(=O)CCS(=O)(=O)c2nc(-c3cccs3)cc(C(F)(F)F)n2)s1 | > 38 µM (inactive) |
| CCOc1ccc(S(=O)(=O)Nc2cc(SCC(=O)O)c(O)c3ccccc23)cc1 | 2.81 µM |
| COc1ccc(CNC(=O)c2nc(S(=O)(=O)Cc3ccccc3)ncc2Cl)cc1 | > 38 µM (inactive) |
| CCOC(=O)CNc1nnc(SCC(=O)OCC)[nH]c1=O | 10.2 µM |
| COc1cc2c(cc1OC)-c1c(OC)c(OC)cc3c1C(C2)N(C)CC3 (centres undefined) | 10.3 µM |
| COc1ccc(/C=C2/C(=O)N(c3ccccc3)N=C2C)cc1OC | 5.49 µM |
| COc1cc(NCCCC(C)N)c2ncccc2c1 (centres undefined) | 18.1 µM |
| Cc1ccc(N2C(=O)C(Cl)=C(N3CCOCC3)C2=O)cc1Cl | > 38 µM (inactive) |
| Cc1nccn1-c1c([N+](=O)[O-])c(=O)n(C)c2ccccc12 | > 38 µM (inactive) |
| CC(=O)N(c1ccccc1)C(C)c1nc(C#N)c(C#N)nc1C (centres undefined) | > 38 µM (inactive) |
| CC(=O)Oc1ccc2ccccc2c1C(NC(=O)Cc1ccccc1)c1ccc(Cl)cc1 (centres undefined) | 4.04 µM |
| O=C1C=C(N2CCCCC2)c2ccccc2C1=O | 10.4 µM |
| CCNC1=C(Cl)C(=O)c2ccccc2C1=O | 22.3 µM |
| CC(C)N(CC(=O)Nc1ccc(Cl)cc1C(F)(F)F)C(=O)CCl | 12.9 µM |
| COC(CN(C(=O)CCl)C(C(=O)NC1CCCCC1)c1ccc(Cl)cc1)OC (centres undefined) | 7.61 µM |

| SMILES | AC50 |
| --- | --- |
| CCOC(=O)c1c(C)oc2c1c(C=NCCC(=O)O)c(O)c1ccccc12 | 22.1 µM |
| CCCCn1c(NC(=O)c2ccco2)c(S(=O)(=O)c2ccc(C)cc2)c2nc3ccccc3nc21 | > 38 µM (inactive) |
| c1coc(-c2nnc(-c3ccco3)nn2)c1 | 12.8 µM |
| CC1=NN(c2nc(-c3ccccc3)cs2)C(=O)C1 | 18.8 µM |
| COc1ccc2[nH]c(CN3CCC(CO)(CCOc4ccccc4)CC3)c(C)c2c1 | > 38 µM (inactive) |
| CC(C)NC(=S)NC1(C)CCS(=O)(=O)C1 (centres undefined) | > 38 µM (inactive) |
| CC1=NN(c2ccccc2)C(=O)/C1=C\c1ccc(Oc2ccc([N+](=O)[O-])cc2[N+](=O)[O-])cc1 | 3.48 µM |
| O=C(C(=C1N(Cc2ccc(Cl)nc2)CCN1Cc1ccc(Cl)nc1)[N+](=O)[O-])C(Cl)Cl | > 38 µM (inactive) |
| O=S(=O)(Nc1ccc(-n2cnnn2)cc1)c1ccc(F)c(F)c1F | > 38 µM (inactive) |
| CCOC(=O)c1c(NC(=O)CCl)sc(C(=O)N(CC)CC)c1C | 4.22 µM |
| O=S(=O)(c1ccc(Cl)cc1)c1snnc1-c1ccccc1 | > 38 µM (inactive) |
| CC(=O)N1CCC2(CC1)C(C#N)=C(N)Oc1n[nH]c(C)c12 | > 38 µM (inactive) |
| CN1CCN(C(c2ccc(C(F)(F)F)cc2)c2cc(Cl)c3cccnc3c2O)CC1 (centres undefined) | > 38 µM (inactive) |
| CN(C)C(=O)c1ccc2c(c1[N+](=O)[O-])C(=O)c1ccccc1C2=O | > 12 µM (inactive) |
| CC(=O)Nc1ccc(S(=O)(=O)/N=C2\C(=O)c3ccccc3C([O-])=C2n2cc[n+](-c3ccccn3)c2)cc1 | 5.71 µM |
| C/C(CC(=O)Nc1ccccn1)=N\NC(=O)c1cccc(C)c1 | > 38 µM (inactive) |
| CCOc1cc(/C=N\NC(=O)OC(C)(C)C)ccc1OC(=O)c1ccco1 | > 38 µM (inactive) |
| O=C(Oc1ccc(-n2cnnn2)cc1)c1ccco1 | > 38 µM (inactive) |
| Cc1oc2c(c1C(=O)NCc1cccnc1)C(=O)c1ccccc1C2=O | 1.4 µM |
| CCc1ccc(OCC(=O)N/N=C2\CC(=O)c3ccccc32)cc1 | 26.8 µM |
| CCC(C)[C@@H](NC(=O)OC(C)(C)C)c1nnc(S(=O)(=O)Cc2cccc(C)c2)o1 (some centres undefined) | > 38 µM (inactive) |
| O=C1c2ccccc2-n2c1nc1ccccc1c2=O | > 38 µM (inactive) |
| CC1=NN(Cc2ccccc2)C(=O)C1C(c1ccc(Cl)cc1)C(C#N)C#N (centres undefined) | 31 µM |
| CCOC(=O)c1c(NC(=O)CSc2nnc(-c3c[nH]c4ccccc34)n2CCOC)sc2c1CCCC2 | > 38 µM (inactive) |
| CCOC(=O)CSc1n[nH]c(NC(=O)c2cccc(C(F)(F)F)c2)n1 | > 38 µM (inactive) |
| CC(C)(C)c1cc(C(=O)CCN2CCOCC2)cc(C(C)(C)C)c1O | 12.1 µM |

| SMILES | AC50 |
| --- | --- |
| CCCCNC(=O)c1c(N)n(Cc2ccc3c(c2)OCO3)c2nc3ccccc3nc12 | 7.9 µM |
| CC1=NNC(=O)C1Cc1ccccc1 (centres undefined) | > 38 µM (inactive) |
| CN(C(=O)c1cccc(COc2ccc(Cl)cc2Cl)c1)c1ccccc1 | > 38 µM (inactive) |
| Cc1ccc(NC(=O)c2sc3ncnc(N4CCN(c5ccccn5)CC4)c3c2C)c(C)c1 | > 38 µM (inactive) |
| O=C(O)CSc1cc(NS(=O)(=O)c2ccc(Br)cc2)c2ccccc2c1O | 2.2 µM |
| Cc1nc([N+](=O)[O-])c(Sc2nc3ccccc3[nH]2)n1Cc1ccccc1 | > 38 µM (inactive) |
| COC(=O)C1CN(C#N)N(c2ccc(Cl)cc2)C12c1ccccc1-c1ccccc12 (centres undefined) | 10.7 µM |
| N#CC1=C(N)Oc2n[nH]c(-c3ccccc3)c2C1c1cccc(OC(=O)N2CCOCC2)c1 (centres undefined) | 32.7 µM |
| CCCCCCCCOC(=O)c1c(CSC(=N)N)n(C)c2cc(Br)c(OC(C)=O)cc12 | 14.5 µM |
| COc1ccc(C2NC(c3ccc(OC)cc3OC)C(C)C(=O)C2C)c(OC)c1 (centres undefined) | > 38 µM (inactive) |
| Cc1nc2ccccc2c2c1C(=O)N(C)C2=O | > 38 µM (inactive) |
| C=CCn1c(-c2cccnc2Cl)nc2ccccc21 | > 38 µM (inactive) |
| Oc1c(C=NCc2ccc(F)cc2)[nH]c2ccc(Br)c(Cl)c12 | 30.8 µM |
| COc1ccc(CC(=O)O/N=C(\N)Cc2cccc3ccccc23)cc1OC | > 38 µM (inactive) |
| CCCc1[nH]nc2c1C(c1ccc(OCCN3CCOCC3)c(OCC)c1)C(C#N)=C(N)O2 (centres undefined) | > 38 µM (inactive) |
| CC1=NN(c2ccccc2)C(=O)/C1=C/c1cn(C)c2ccccc12 | > 38 µM (inactive) |
| COC(=O)c1sc(-c2ccc(C(C)(C)C)cc2)cc1NC(=O)/C=C/C(=O)O | 5.71 µM |
| COC(=O)Cc1c(C)[nH]n(-c2cc(Cl)cc(Cl)c2)c1=O | > 38 µM (inactive) |
| CCCCOP(=O)(OCCCC)C1(NS(=O)(=O)c2ccccc2)C=CC(=O)c2ccccc21 (centres undefined) | 9.07 µM |
| CC(C)N(c1ccccc1)c1ccc(NC(=O)CCl)cc1 | 1.45 µM |
| COC(=O)C(O)(c1c(C)[nH]n(-c2ccccc2)c1=O)C(F)(F)F (centres undefined) | 5.49 µM |
| Cc1c(/C=N/Nc2nc3ccccc3[nH]2)c2ccccc2n1C | 28.1 µM |
| Cc1ccsc1C=Nc1ccc(O)cc1 | > 38 µM (inactive) |
| C/C(=N\NC(=O)Cc1cc(=O)[nH][nH]1)c1cccc([N+](=O)[O-])c1 | 30.5 µM |
| CCCn1c(CC)nc([N+](=O)[O-])c1S(=O)(=O)c1ccccc1 | > 38 µM (inactive) |
| O=C(CCl)Nc1c(C(=O)Nc2ccc3c(c2)OCCO3)oc2ccccc12 | 4.49 µM |
